According to paper PMC11121495, “Blap-6, a Novel Antifungal Peptide from the Chinese Medicinal Beetle Blaps rhynchopetera against Cryptococcus neoformans” (International Journal of Molecular Sciences, 2024):
Values after ≈ are worked out from the molar mass of the structure shown. Like-named read-outs stand apart in the source and are kept apart here. Where no end group is shown, it is not given here.

Legend:
S. aureus = assay: microbe, parasite or virus in culture; format: cell-based, Staphylococcus aureus (ATCC 6538)
Description: (§1) These standard strains of Escherichia coli (E. coli, ATCC 8739), Staphylococcus aureus (S. aureus, ATCC 6538), Pseudomonas aeruginosa (P. aeruginosa, ATCC 27853), Acinetobacter baumannii (A. baumannii, ATCC 1968), Candida albicans (ATCC 10231), and the clinical strain of Methicillin-resistant Staphylococcus aureus (MRSA, MRSA-Z) were obtained from Kunming Medical University. The standard strain of C. neoformans (ATCC 32045) was purchased from Shanghai Yingxin Laboratory Co., Ltd. (CAS NO. YXJ50058). Different strains of E. coli, S. aureus, MRSA, P. aeruginosa, and A. baumannii were cultured with shaking at 37 °C in Luria–Bertani (LB) medium. C. neoformans was cultured at 35 °C in Sabouraud Dextrose Agar (SDA) medium according to the manufacturer’s instructions.
(§2) According to Clinical and Laboratory Standards Institute (CLSI) protocols, the minimum inhibitory concentration (MIC) is the minimum drug concentration at which antibiotics inhibit the growth and reproduction of strains. The different strains were grown in their corresponding media at 35 °C or 37 °C until they entered the exponential growth phase. Fluconazole and amphotericin B were used as positive controls, and sterile 0.9% NaCl was used as a negative control. The peptides were diluted to various concentrations in sterile saline. According to 1 OD = 1 × 10^9 CFU/mL, the above bacterial solution was diluted to 2 × 10^5 CFU/mL with the corresponding medium. In advance, 100 μL of normal saline was added to a sterile 96-well plate, and 200 μL of the sample to be tested was added to the first well. The sample to be tested was subjected to double gradient dilution, and then 100 μL of bacterial solution with a concentration of 2 × 10^5 was added to each well. It was cultured at 35 °C or 37 °C for different times. The light absorption value of the bacterial solution at 600 nm was detected by a microplate reader (Epoch Etock, Biotek, Winooski, VT, USA), and the average concentration of the samples in the pores and adjacent pores that could not detect microbial growth was used as the MIC value.

A. baumannii = assay: microbe, parasite or virus in culture; format: cell-based, Acinetobacter baumannii (ATCC 1968)
Description: as §1, §2

E. coli = assay: microbe, parasite or virus in culture; format: cell-based, Escherichia coli (ATCC 8739)
Description: as §1, §2

C. albicans = assay: microbe, parasite or virus in culture; format: cell-based, Candida albicans (ATCC 10231)
Description: as §1, §2

P. aeruginosa = assay: microbe, parasite or virus in culture; format: cell-based, Pseudomonas aeruginosa (ATCC 27853)
Description: as §1, §2

MRSA = assay: microbe, parasite or virus in culture; format: cell-based
Description: as §1, §2

C. neoformans = assay: microbe, parasite or virus in culture; format: cell-based, Cryptococcus neoformans (ATCC 32045)
Description: as §1, §2

C. neoformans ATCC 32045 = assay: Fungal-killing kinetics; format: cell-based, Cryptococcus neoformans; conditions: positive control; concentration not stated in the sentence (1×, 5×, 10 × MIC tested)
Protocol: The single colony of C. neoformans ATCC 32045 was selected and cultured at 180 rpm and 37 °C, washed three times with normal saline, and then resuspended, and the fungal solution was diluted to 1 × 10^6 CFU/mL with SDB medium. The positive control was fluconazole, and the negative control was normal saline. […] The fungal liquid after adding the sample was quickly put into the 37 °C constant temperature incubator, and the shaking culture was carried out at 180 rpm. […] The plate was placed in a constant temperature incubator for inverted culture for 72 h at 37 °C, and then the single colony on the plate was counted.

[1] = Candida albicans, ATCC10231, ATCC 10231, double gradient dilution, 2 × 10^5 CFU/mL, OD 600 nm, mean of three independent experiments
[2] = Cryptococcus neoformans, ATCC32045, ATCC 32045, double gradient dilution, 2 × 10^5 CFU/mL, 35 °C, OD 600 nm, mean of three independent experiments

FIKKMLGNFSNYVRRPGKR [blap-9]
MIC (S. aureus): 81.10 µM | MIC (A. baumannii): 81.10 µM | MIC (E. coli): 81.10 µM | MIC (C. albicans): 40.55 µM | MIC (P. aeruginosa): 81.10 µM | MIC (MRSA): 81.10 µM | MIC (C. neoformans): 81.10 µM

RWKERKKWQKRWKRKKG [blap-8]
MIC (S. aureus): 156.3 µM | MIC (E. coli): 312.50 µM | MIC (C. albicans): 19.53 µM | MIC (P. aeruginosa): 7.81 µM | MIC (MRSA): 156.30 µM | MIC (C. neoformans): 19.53 µM

KRALSLPKMREDRLLYRGRA [blap-7]
MIC (C. albicans): 156.30 µM | MIC (C. neoformans): 312.50 µM

CC1(C)S[C@@H]2[C@H](NC(=O)[C@H](N)c3ccccc3)C(=O)N2[C@H]1C(=O)O [Ampicillin, reference compound]
MIC (S. aureus; Staphylococcus aureus, ATCC6538, ATCC 6538, double gradient dilution, 2 × 10^5 CFU/mL, LB, 37 °C, OD 600 nm, mean of three independent experiments): 63.1 µM (≈ 22.1 µg/mL) | MIC (A. baumannii; Acinetobacter baumannii, ATCC1968, ATCC 1968, double gradient dilution, 2 × 10^5 CFU/mL, LB, 37 °C, OD 600 nm, mean of three independent experiments): 31.6 µM (≈ 11 µg/mL) | MIC (E. coli; Escherichia coli, ATCC8739, ATCC 8739, double gradient dilution, 2 × 10^5 CFU/mL, LB, 37 °C, OD 600 nm, mean of three independent experiments): 31.6 µM (≈ 11 µg/mL) | MIC (P. aeruginosa; Pseudomonas aeruginosa, ATCC27853, ATCC 27853, double gradient dilution, 2 × 10^5 CFU/mL, LB, 37 °C, OD 600 nm, mean of three independent experiments): 31.6 µM (≈ 11 µg/mL) | MIC (MRSA; Staphylococcus aureus, clinical strain MRSA-Z, double gradient dilution, 2 × 10^5 CFU/mL, LB, 37 °C, OD 600 nm, mean of three independent experiments): 126 µM (≈ 44.1 µg/mL)

C[C@@H]1[C@H](O)[C@@H](C)/C=C/C=C/C=C/C=C/C=C/C=C/C=C/[C@H](O[C@@H]2O[C@H](C)[C@@H](O)[C@H](N)[C@@H]2O)C[C@@H]2O[C@](O)(C[C@@H](O)C[C@@H](O)[C@H](O)CC[C@@H](O)C[C@@H](O)CC(=O)O[C@H]1C)C[C@H](O)[C@H]2C(=O)O [Amphotericin B, reference compound]
MIC (C. albicans; [1]): 0.05 µM (≈ 0.0462 µg/mL) | MIC (C. neoformans; [2]): 0.05 µM (≈ 0.0462 µg/mL)

OC(Cn1cncn1)(Cn1cncn1)c1ccc(F)cc1F [Fluconazole, reference compound]
MIC (C. albicans; [1]): 0.61 µM (≈ 0.187 µg/mL) | time required for fungicidal rate to reach more than 90% (C. neoformans ATCC 32045): 360 min | MIC (C. neoformans; [2]): 6.36 µM (≈ 1.95 µg/mL)

RWNTSRWLRL [blap-10]
MIC (C. albicans): 156.30 µM | MIC (P. aeruginosa): 312.50 µM | MIC (MRSA): 19.54 µM | MIC (C. neoformans): 312.5 µM
